Data: ChEMBL document CHEMBL6121019, “Design, synthesis and biological evaluation of bisnoralcohol derivatives as novel IRF4 inhibitors for the treatment of multiple myeloma” (Eur J Med Chem, 2025)
Activity calls are given as the source filed them. No cut-off for these calls is given here.

Experiments:
NCI-H929 [1] = test: Antitumor activity against human NCI-H929 cells xenografted in Balb/C nude mouse model assessed as inhibition of Akt phosphorylation level at 25 mg/kg by Western blot analysis; assay type: functional, organism-based
NCI-H929 [2] = test: Antitumor activity against human NCI-H929 cells xenografted in Balb/C nude mouse model assessed as reduction in Ki67 expression at 25 mg/kg by immunohistochemical staining based analysis; assay type: functional, organism-based
[3] = Antiproliferative activity against human HaCaT cells assessed as inhibition of cell viability measured after 72 hrs by MTS assay; assay type: toxicity, cell-based
[4] = Toxicity in Balb/C nude mouse assessed as changes in main organ at 25 mg/kg administered once daily and measured every three days for 34 days by H and E staining based analysis; assay type: organism-based; details: in vivo, 816 h, time 34 day
NCI-H929 [5] = test: Antiproliferative activity against human NCI-H929 cells assessed as inhibition of cell viability measured after 72 hrs by MTS assay; assay type: functional, cell-based; details: NCI-H929, 72 h
NCI-H929 [6] = test: Antitumor activity against human NCI-H929 cells xenografted in Balb/C nude mouse model assessed as inhibition of […] expression at 25 mg/kg by Western blot analysis; assay type: functional, organism-based
[7] = Antiproliferative activity against human HAF cells assessed as inhibition of cell viability measured after 72 hrs by MTS assay; assay type: toxicity, cell-based
NCI-H929 [8] = test: Antitumor activity against human NCI-H929 cells xenografted in Balb/C nude mouse model assessed as inhibition of ERK phosphorylation level at 25 mg/kg by Western blot analysis; assay type: functional, organism-based
[9] = Toxicity in Balb/C nude mouse assessed as side effects at 25 mg/kg administered once daily and measured every three days for 34 days by H and E staining based analysis; assay type: organism-based; details: in vivo, 816 h, time 34 day
[10] = Antiproliferative activity against human MM1.R cells assessed as inhibition of cell viability measured after 72 hrs by MTS assay; assay type: functional, cell-based; details: MM.1R
NCI-H929 [11] = test: Antitumor activity against human NCI-H929 cells xenografted in Balb/C nude mouse model assessed as inhibition of inhibition of cyclin D1 expression at 25 mg/kg by Western blot analysis; assay type: functional, organism-based
[12] = Toxicity in Balb/C nude mouse assessed as change in body weight at 25 mg/kg administered once daily and measured every three days for 34 days; assay type: organism-based; details: in vivo, 816 h, time 34 day
[13] = biological target: T1, Interferon regulatory factor 4 (Homo sapiens, UniProt Q15306); test: Inhibition of IRF4 (unknown origin) incubated for 1 hr by fluorescence polarization assay
T1 sequence (Q15306 whole entry): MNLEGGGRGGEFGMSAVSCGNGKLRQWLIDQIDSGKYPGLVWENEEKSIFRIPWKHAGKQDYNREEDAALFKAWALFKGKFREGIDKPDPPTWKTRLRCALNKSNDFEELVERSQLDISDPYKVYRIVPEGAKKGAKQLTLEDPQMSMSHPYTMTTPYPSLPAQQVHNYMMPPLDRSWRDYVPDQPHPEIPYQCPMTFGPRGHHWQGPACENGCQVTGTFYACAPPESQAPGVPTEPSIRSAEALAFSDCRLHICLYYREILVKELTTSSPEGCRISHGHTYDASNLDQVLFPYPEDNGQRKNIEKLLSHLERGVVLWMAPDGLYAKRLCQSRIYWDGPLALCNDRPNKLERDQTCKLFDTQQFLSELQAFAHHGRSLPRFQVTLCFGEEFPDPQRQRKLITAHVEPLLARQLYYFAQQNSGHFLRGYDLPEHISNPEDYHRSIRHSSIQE

RPMI-8226 = test: Antiproliferative activity against human RPMI-8226 cells assessed as inhibition of cell viability measured after 72 hrs by MTS assay; assay type: functional, cell-based; details: RPMI-8226, 72 h
NCI-H929 [14] = test: Antitumor activity against human NCI-H929 cells xenografted in Balb/C nude mouse model assessed as increase in gammaH2AX expression at 25 mg/kg by Western blot analysis; assay type: functional, organism-based
[15] = Selectivity ratio IC50 for human RPMI-8226 cells to IC50 for human NCI-H929 cells; assay type: toxicity
[16] = Selectivity ratio IC50 for human RPMI-8226 cells to IC50 for human MM1.R cells; assay type: toxicity

| SMILES | Activity (NCI-H929 [1]) | Activity (NCI-H929 [2]) | IC50 at 72 h [3] | Activity [4] | IC50 (NCI-H929 [5]) | Activity (NCI-H929 [6]) | IC50 at 72 h [7] | Activity (NCI-H929 [8]) | Activity [9] | IC50 [10] | Activity (NCI-H929 [11]) | Activity [12] | IC50 [13] | IC50 (RPMI-8226) | Activity (NCI-H929 [14]) | Ratio IC50 [15] | Ratio IC50 [16] |
| --- | --- | --- | --- | --- | --- | --- | --- | --- | --- | --- | --- | --- | --- | --- | --- | --- | --- |
| Nc1cccc2c1CN(C1CCC(=O)NC1=O)C2=O (stereo unspecified) [LENALIDOMIDE] | Active | inactive | > 100 µM | Non-toxic | 2.39 µM | Active | > 100 µM | Active | Non-toxic | 4.52 µM | Active | Non-toxic | > 20 µM | 50.2 µM | Active |  |  |
| C[C@H](C(=O)n1ccnc1)[C@H]1CC[C@H]2[C@@H]3C(=O)C=C4C(C)(C)C(=O)C(C#N)=C[C@]4(C)[C@H]3CC[C@]12C |  |  | > 100 µM |  | 2.57 µM |  | > 100 µM |  |  | 4.46 µM |  |  | 3.88 µM | 7.65 µM |  | 3 | 1.7 |
| Cc1ccc(NC(=O)[C@@H](C)[C@H]2CC[C@H]3[C@@H]4C(=O)C=C5C(C)(C)C(=O)C(C#N)=C[C@]5(C)[C@H]4CC[C@]23C)cc1 |  |  | > 100 µM |  | 0.22 µM |  | > 100 µM |  |  | 0.27 µM |  |  | 3.65 µM | 0.26 µM |  | 1.2 | 1 |
